Source: paper PMC10960024, “Diindoles produced from commensal microbiota metabolites function as endogenous CAR/Nr1i3 ligands” (Nature Communications, 2024)

Experiments:
[1] = biological target: T1, His-tagged CAR-LBD-SRC1 fusion protein (Homo sapiens, UniProt Q14994); test: Isothermal titration calorimetry (ITC); format: binding; conditions: 25 °C; ligand 50 μM; mean of two independent experiments
T1 construct: The human CAR LBD (Lys^108 – Ser^352) was amplified by PCR from cDNA; HIS6; made in house; host or cells: E. coli BL21(DE3)
T1 sequence (Q14994 108-352): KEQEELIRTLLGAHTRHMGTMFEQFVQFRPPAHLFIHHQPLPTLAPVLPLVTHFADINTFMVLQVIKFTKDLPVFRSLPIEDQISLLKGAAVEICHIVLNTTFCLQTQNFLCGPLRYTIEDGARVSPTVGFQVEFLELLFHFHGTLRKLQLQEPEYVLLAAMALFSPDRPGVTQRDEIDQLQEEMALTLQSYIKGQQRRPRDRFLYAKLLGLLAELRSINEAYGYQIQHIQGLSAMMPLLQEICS
Description: Purified hCAR-SRC1 protein (200–250 µM) was dissolved in 120 μL of PBS and supplemented with 0.5% DMSO. All experiments were performed in a MicroCal Auto-iTC200 instrument (Malvern Panalytical, Marlvern, United Kingdom) at 25 °C. Ligands were used at a concentration of 50 μM. Protein was titrated into cells in a series of 19 injections (injection 1 = 0.4 µL, injection 2–19 = 2 µL) 180 s apart. Control experiments performed by injection of the potein into […] yielded insignificant heats of dilution, and heat responses were subtracted. Integrated heat effects were analyzed using Microcal Origin 7 software (Malvern Instruments).

Liver histology (H&E) = format: in vivo
Description: 12–15 week-old C57BL/6 J mice were obtained from Jackson Laboratories and were housed on a standard 12 h light/dark cycle. Nr1i3^−/− mice with C57BL/6 J background were obtained from David Moore’s lab (PMID: 11057673) at Baylor College of Medicine, and used at 13–26 weeks of age. Wild-type male, female and Nr1i3^−/− male mice were used in this study, due to known sex-specific CAR activities. Mice were housed in groups of 2–5 mice per cage on a standard 12 h light/dark cycle and fed with rodent chow diet (Inotiv, Teklad rodent diet 2918). Temperature was maintained at 21 °C with a range of 21–24 °C and humidity at 16–51%. National Institute of Health guidelines for the care and use of laboratory animals were followed with all experiments performed as directed by the Institutional Animal Care and Use Committee at the University of Illinois, Urbana-Champaign (UIUC, IACUC protocol: 22183). Mice were acclimatized to the UIUC mouse facility for 2 weeks prior to experiments. DIM and DIE were dissolved in 5% DMSO in corn oil and injected intraperitoneally at 25 mg/kg once daily for three days. After 4 h of the third injection, mice were sacrificed to collect serum, livers and intestines. TCPOBOP was dissolved in corn oil and injected intraperitoneally at 3 mg/kg once and the livers collected after 3 days for further studies. When used to block CAR activity, 100 mg/kg androstenol was injected intraperitoneally 15 min prior to the first DIM or DIE treatment. RNA from mice livers was isolated using TRIzol (Invitrogen) reagent using the manufacturer’s instructions. 3–5 µg of RNA was used to synthesize cDNA with random primers (NEBioLabs) and Maxima Reverse Transcriptase kits (Thermo Fisher Scientific). cDNA was further diluted, and 50 ng was used for SYBR green (Thermo Fisher Scientific) based qRT-PCR. Relative gene expression was calculated by the delta Ct method and normalized to 36b4 levels as loading controls. qPCR primers for gene expression analysis are listed in Supplementary Table 3. […]

[2] = Diindole levels in tissues of WT and Nr1i3-/- mice; format: in vivo
Description: 12–15 week-old C57BL/6 J mice were obtained from Jackson Laboratories and were housed on a standard 12 h light/dark cycle. Nr1i3^−/− mice with C57BL/6 J background were obtained from David Moore’s lab (PMID: 11057673) at Baylor College of Medicine, and used at 13–26 weeks of age. Wild-type male, female and Nr1i3^−/− male mice were used in this study, due to known sex-specific CAR activities. Mice were housed in groups of 2–5 mice per cage on a standard 12 h light/dark cycle and fed with rodent chow diet (Inotiv, Teklad rodent diet 2918). Temperature was maintained at 21 °C with a range of 21–24 °C and humidity at 16–51%. National Institute of Health guidelines for the care and use of laboratory animals were followed with all experiments performed as directed by the Institutional Animal Care and Use Committee at the University of Illinois, Urbana-Champaign (UIUC, IACUC protocol: 22183). Mice were acclimatized to the UIUC mouse facility for 2 weeks prior to experiments. DIM and DIE were dissolved in 5% DMSO in corn oil and injected intraperitoneally at 25 mg/kg once daily for three days. After 4 h of the third injection, mice were sacrificed to collect serum, livers and intestines. […] Relative gene expression was calculated by the delta Ct method and normalized to 36b4 levels as loading controls. qPCR primers for gene expression analysis are listed in Supplementary Table 3.

[3] = Liver-to-body weight ratio after treatment; format: in vivo
Description: (§1) 12–15 week-old C57BL/6 J mice were obtained from Jackson Laboratories and were housed on a standard 12 h light/dark cycle. Nr1i3^−/− mice with C57BL/6 J background were obtained from David Moore’s lab (PMID: 11057673) at Baylor College of Medicine, and used at 13–26 weeks of age. Wild-type male, female and Nr1i3^−/− male mice were used in this study, due to known sex-specific CAR activities. Mice were housed in groups of 2–5 mice per cage on a standard 12 h light/dark cycle and fed with rodent chow diet (Inotiv, Teklad rodent diet 2918). Temperature was maintained at 21 °C with a range of 21–24 °C and humidity at 16–51%. National Institute of Health guidelines for the care and use of laboratory animals were followed with all experiments performed as directed by the Institutional Animal Care and Use Committee at the University of Illinois, Urbana-Champaign (UIUC, IACUC protocol: 22183). Mice were acclimatized to the UIUC mouse facility for 2 weeks prior to experiments. DIM and DIE were dissolved in 5% DMSO in corn oil and injected intraperitoneally at 25 mg/kg once daily for three days. After 4 h of the third injection, mice were sacrificed to collect serum, livers and intestines. TCPOBOP was dissolved in corn oil and injected intraperitoneally at 3 mg/kg once and the livers collected after 3 days for further studies. When used to block CAR activity, 100 mg/kg androstenol was injected intraperitoneally 15 min prior to the first DIM or DIE treatment. RNA from mice livers was isolated using TRIzol (Invitrogen) reagent using the manufacturer’s instructions. 3–5 µg of RNA was used to synthesize cDNA with random primers (NEBioLabs) and Maxima Reverse Transcriptase kits (Thermo Fisher Scientific). cDNA was further diluted, and 50 ng was used for SYBR green (Thermo Fisher Scientific) based qRT-PCR. Relative gene expression was calculated by the delta Ct method and normalized to 36b4 levels as loading controls. qPCR primers for gene expression analysis are listed in Supplementary Table 3.

hCAR LBD-SRC1 protein = biological target: T2, hCAR LBD-SRC1 protein (Homo sapiens, UniProt Q14994); test: Fluorescence thermal shift assay (TSA); format: binding; conditions: diindoles at 12.5 µM; APO Tm 51.5 °C; means of triplicates
T2 construct: The human CAR LBD (Lys^108 – Ser^352) was amplified by PCR from cDNA; HIS6; made in house; host or cells: E. coli BL21(DE3)
T2 sequence (Q14994 108-352): T1 sequence (Q14994 108-352)
Description: Purified hCAR LBD-SRC1 protein was assayed in 137 mM NaCl, 2.7 mM KCl, 10 mM Na2HPO4, and 1.8 mM KH2PO4, 0.5% DMSO, pH 7.4, at a final concentration of 2.2 µM. SYPRO Orange was used at a final concentration of 10× (Invitrogen, S6650). Each sample was divided into three 25 µL replicates. Sample solutions were dispensed into 96-well optical reaction plates (Thermo Fisher Scientific, 4306737) and sealed with optical PCR plate sheets (Thermo Fisher Scientific, AB-1170). TSA experiments were carried out using a QuantStudio 12 K Flex Real Time PCR System (Applied Biosystems). The temperature was ramped up from 25 °C to 95 °C at a rate of 0.3 °C/min, and SYPRO orange fluorescence monitored. Raw fluorescence data and melting temperatures were determined using nonlinear regression curve fitting using GraphPad Prism 9.

[4] = system: cyp2b6, cyp3a4, sult2a1 mRNA in PHH; test: RT-qPCR of CAR target genes in primary human hepatocytes; format: cell-based; conditions: two donors, 48 h
Description: PHH culture, RNA extraction and gene expression analyses were performed as described previously. Primer sequences for cyp2b6, cyp3a4, sult2a1, and glyceraldehyde-3-phosphate dehydrogenase (gapdh) are shown in Supplementary Table 3.

[5] = system: mCAR target genes (cyp2b10, cyp3a11, sult2a1) in mouse liver; test: qPCR of mCAR target genes in mouse liver after intraperitoneal treatment; format: in vivo; conditions: for cyp2b10 expression in liver, wild-type mice: 25 mg/kg i.p. once daily for three days; for sult2a1 expression in liver: WT or Nr1i3-/- mice; for cyp3a11 expression in liver: mouse liver, with or without And pre-treatment
Description: as §1

Row | Structure (SMILES) | Kd [1] [nM] | liver histology (H&E) findings (Liver histology (H&E); after treatment) | compound levels in tissues of Nr1i3-/- versus WT mice ([2]; duodenum, jejunum, ileum, liver, male mice treated with diindoles) | liver weight / liver-to-body weight ratio ([3]; post-treatment, compared to control) | Tm (hCAR LBD-SRC1 protein) [°C] | cyp2b6 mRNA expression [4] | cyp3a4 mRNA expression (joint CAR/PXR target gene) [4] | sult2a1 mRNA expression (non-target gene) [4] | cyp2b10 expression in liver, wild-type mice [5] | sult2a1 expression in liver [5] | cyp3a11 expression in liver [5] | liver histology (H&E) findings (Liver histology (H&E); mouse, in vivo) | compound levels in tissues of Nr1i3-/- versus WT mice ([2]; mouse, in vivo) | liver weight / liver-to-body weight ratio ([3]; mouse, in vivo)
1 | CC(c1c[nH]c2ccccc12)c1c[nH]c2ccccc12 [DIE, 3,3’-diindolylethane] | 250 | no increase in hepatocyte size, cytoplasmic swelling, obvious damage or inflammation | increased dramatically | no significant changes | 59.6 | selectively upregulated | more variable | no effects | robustly induced | did not show significant responses | did not affect |  |  | 
2 | c1ccc2c(Cc3c[nH]c4ccccc34)c[nH]c2c1 [DIM, diindolylmethane] | 3900 |  |  |  | 57.1 | selectively upregulated | more variable | no effects | robustly induced | did not show significant responses | did not affect | no increase in hepatocyte size, cytoplasmic swelling, obvious damage or inflammation | increased dramatically | no significant changes
